Tests used:
[1] = molecular target: Protease (Human immunodeficiency virus 1, UniProt Q9YQ12); assay: Inhibition of HIV1 protease using Ac-Thr-Ile-Nle-Nle-Gln-Arg-NH2 substrate by continuous fluorometric assay
[2] = test system: Human immunodeficiency virus 1; assay: Antiviral activity against HIV1 NL4-3 infected in human MT4 cells assessed as reduction in p24 Gag protein production incubated for 6 days and measured on day 7 by chemiluminescent enzyme immunoassay; type: functional, organism-based; details: Human immunodeficiency virus 1, NL4-3, MT4

Chain of Protease (Q9YQ12 whole entry): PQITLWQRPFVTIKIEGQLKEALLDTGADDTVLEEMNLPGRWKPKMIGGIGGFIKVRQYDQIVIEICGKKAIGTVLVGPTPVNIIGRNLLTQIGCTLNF

SMILES	Ki [1] [nM]	IC50 [2] [nM]
CCOc1c(N[C@@H](Cc2ccccc2)[C@H](O)CN(CC(C)C)S(=O)(=O)c2ccc(OC)cc2)c(=O)c1=O	463	> 1000
COc1ccc(S(=O)(=O)N(CC(C)C)C[C@@H](O)[C@H](Cc2ccccc2)Nc2c(O[C@@H]3CCOC3)c(=O)c2=O)cc1	226	> 1000
COc1ccc(S(=O)(=O)N(CC(C)C)C[C@@H](O)[C@H](Cc2ccccc2)Nc2c(N(C)[C@@H]3CCOC3)c(=O)c2=O)cc1	0.51	> 1000
COc1ccc(S(=O)(=O)N(CC(C)C)C[C@@H](O)[C@H](Cc2ccccc2)Nc2c(O[C@H]3CCOC3)c(=O)c2=O)cc1	31.1	> 1000
COc1ccc(S(=O)(=O)N(CC(C)C)C[C@@H](O)[C@H](Cc2ccccc2)Nc2c(N(C)[C@H]3CO[C@H]4OCC[C@H]43)c(=O)c2=O)cc1	4.5	> 1000
COc1ccc(S(=O)(=O)N(CC(C)C)C[C@@H](O)[C@H](Cc2ccccc2)Nc2c(N[C@H]3CCOC3)c(=O)c2=O)cc1	6100	> 1000
COc1ccc(S(=O)(=O)N(CC(C)C)C[C@@H](O)[C@H](Cc2ccccc2)Nc2c(N[C@@H]3CO[C@@H]4OCC[C@@H]43)c(=O)c2=O)cc1	5.6	> 1000
COc1ccc(S(=O)(=O)N(CC(C)C)C[C@@H](O)[C@H](Cc2ccccc2)Nc2c(N[C@H]3CO[C@H]4OCC[C@H]43)c(=O)c2=O)cc1	54.8	> 1000
COc1ccc(S(=O)(=O)N(CC(C)C)C[C@@H](O)[C@H](Cc2ccccc2)Nc2c(N[C@@H]3CCOC3)c(=O)c2=O)cc1	200	> 1000
COCCOc1c(N[C@@H](Cc2ccccc2)[C@H](O)CN(CC(C)C)S(=O)(=O)c2ccc(OC)cc2)c(=O)c1=O	1960	> 1000
COc1ccc(S(=O)(=O)N(CC(C)C)C[C@@H](O)[C@H](Cc2ccccc2)Nc2c(N(C)[C@H]3CCOC3)c(=O)c2=O)cc1	397	> 1000
COc1ccc(S(=O)(=O)N(CC(C)C)C[C@@H](O)[C@H](Cc2ccccc2)Nc2c(N(C)[C@@H]3CO[C@@H]4OCC[C@@H]43)c(=O)c2=O)cc1	201	> 1000

Reference: ChEMBL document CHEMBL4385670, “Potent HIV-1 protease inhibitors incorporating squaramide-derived P2 ligands: Design, synthesis, and biological evaluation” (Bioorg Med Chem Lett, 2019)
